Data taken from patent US20080234291A1, “Mitratapide Oral Solution” (priority 2004, published 2008).
In brackets after ≈: the same amount, converted by molar mass.

Tests used:
[1] = solubility of mitratapide in different pharmaceutical solvents; format: physicochemical; details: about 22° C.
[2] = solubility of mitratapide in water; format: physicochemical
Method: Since mitratapide has a solubility of less than 0.5 μg/ml in water, which can be increased to 0.4 mg/ml at a pH of 1.2, the presence of a solubilizing agent is necessary for the preparation of aqueous solutions. Hydroxypropyl-β-cyclodextrin (HP-β-CD) is a suitable solubilizing agent with which mitratapide forms higher order water soluble complexes. In order to obtain an aqueous solution comprising mitratapide with a concentration of 5 mg/ml it is necessary to use HP-β-CD in an amount of 250 mg/ml and adjusting the pH to 4. Furthermore it is necessary to add an antimicrobial preservative to these aqueous HP-β-CD solutions to protect them against microbial spoilage during manufacture or use. The addition of benzoic acid, a well known antimicrobial preservative for acidic aqueous solutions having a pH ≦4.5, however caused a precipitation of mitratapide probably due to a competition between mitratapide and benzoic acid for inclusion into the HP-β-CD cavity. To compensate, the HP-β-CD concentration had to be increased from 250 mg/ml to 400 mg/ml to solubilize mitratapide at a concentration of 5 mg/ml. […]

solubility ([1]; caprylic/capric/linoleic acid triglyceride (Miglyol 818), oil or lipid, caprylidcapridlinoleic acid triglyceride (Miglyol 818 ®)): < 5000 µg/mL
solubility ([1]; oil or lipid, apricot Kernel oil PEG-6 complex (Labrafil 1944CS ®)): < 5000 µg/mL
solubility ([1]; oil or lipid, caprylic/capric acid triglyceride (Miglyol 812 ®)): < 5000 µg/mL
solubility ([1]; oil or lipid, caprylic/capric diester of propylene glycol): < 5000 µg/mL
solubility ([1]; oil or lipid, caprylic/capric/succinic acid triglyceride (Miglyol 829 ®)): < 5000 µg/mL
solubility ([1]; oil or lipid, caprylocaproyl-8 glyceride (Labrasol ®)): > 5000 µg/mL
solubility ([1]; oil or lipid, corn oil PEG-6 complex (Labrafil 2125CS ®)): < 5000 µg/mL
solubility ([1]; oil or lipid, sesame oil): < 50 µg/mL
solubility ([1]; organic solvent or mixture, diethylene glycol monoethyl ether (Transcutol ®)): > 5000 µg/mL
solubility ([1]; organic solvent or mixture, dimethyl isosorbide (2,5-di-O-methyl-1,4:3,6-dianhydro D-glucitol)): > 5000 µg/mL
solubility ([1]; propylene glycol monolaurate (Lauroglycol), oil or lipid, Dropylene glycol monolaurate (Lauroglycol ®)): > 5000 µg/mL
solubility ([2]; water at pH 1.2, pH 1.2, simulated gastric fluid, pH of 1.2, read-out: solubility in water at pH 1.2): 400 µg/mL (≈ 0.558 mM)
solubility ([2]; water, read-out: solubility in water): < 0.5 µg/mL
Compound: CCC(C)n1ncn(-c2ccc(N3CCN(c4ccc(OCC5COC(CSc6nncn6C)(c6ccc(Cl)cc6)O5)cc4)CC3)cc2)c1=O (stereo not drawn) [mitratapide, (−)-[2S-[2α,4α(S*)]]-4-[4-[4-[4-[[2-(4-chlorophenyl)-2-[[(4-methyl-4H-1,2,4-triazol-3-yl)thio]methy]-1,3-dioxolan-4-yl]methoxy]pheny]-1-piperazinyl]phenyl]-2,4-dihydro-2-(1-methylpropyl)-3H-1,2,4-triazol-3-one]
